Reference: PMC10630888, “Nuclear ERK1/2 signaling potentiation enhances neuroprotection and cognition via Importinα1/KPNA2” (EMBO Molecular Medicine, 2023)

How the values were obtained:
mutant huntingtin (mHtt) = assay: Mutant huntingtin inclusions in striatum of zQ175 females after RB5; assay type: in vivo, mouse; conditions: RB5 for 9 days
Description: Immunofluorescence was performed as described in Papale et al ([2016]). Briefly, 1 h after blocking in 5% normal goat serum, slices were incubated overnight at 4°C with the following primary antibodies: anti‐phospho (Ser10)‐acetylated (Lys14) histone H3 (1:1,000, Millipore), anti‐phospho‐S6 ribosomal protein (Ser235/236) (1:200, Cell Signaling Technology) anti‐phospho‐S6 ribosomal protein (Ser240/244) (1:200, Cell Signaling), cleaved caspase‐3 (1:200, Cell Signaling Technology), anti‐mutant Huntingtin (1:100, Developmental Studies Hybridoma Bank, University of Iowa, #MW8), and NeuN (1:1,000, Millipore). […]
In ex‐vivo and in‐vivo immunofluorescence experiments, the number of p‐S6 or p‐AcH3 immunoreactive neurons among NeuN‐positive neurons was counted in 2–3 consecutive striatal sections per mouse in four fields per section. Caspase 3‐positive cells were quantified among NeuN‐positive neurons in each slide and expressed as percentage (ratio between caspase‐3‐positive cells and total NeuN‐positive neurons) for each field acquired through the slide. The number of cells showing mutant Huntingtin inclusions were expressed as a percentage of mutant Huntingtin‐positive cells among DAPI‐positive cells. […]

[1] = system: corticostriatal synapses on dSPNs; assay: Patch clamp, HFS-LTD at corticostriatal synapses on dSPNs; assay type: cell-based, mouse; conditions: peptide 50 μM intracellularly, mean, RB5 n = 7 cells, Scr n = 5 cells
Description: Brain slices containing both the striatum and the cortex were prepared as described (Trusel et al, [2015]). Mice were anesthetized by isoflurane and decapitated, and their brains were rapidly transferred to ice‐cold dissecting aCSF containing (in mM): 110 Choline‐Cl, 2.5 KCl, 1.25 NaH2PO4, 7 MgCl26H2O, 0.5 CaCl2, 25 NaHCO3, 25 D‐glucose, 11.6 ascorbic acid, saturated with 95% O2 and 5% CO2. Horizontal corticostriatal slices (270 μm thick; patch‐clamp recordings) were cut in the dissecting aCSF using a Vibratome 1000S slicer (Leica, Italy), then transferred to normal aCSF containing (in mM): 115 NaCl, 3.5 KCl, 1.2 NaH2PO4, 1.3 MgCl26H2O, 2 CaCl2, 25 NaHCO3, and 25 D‐glucose and aerated with 95% O2 and 5% CO2. Following 20 min of incubation at 32°C, slices were kept at RT. During experiments, slices were continuously perfused with aCFS at a rate of 2 ml/min at 28°C. […]
SPNs were clamped at a holding membrane potential of −80 mV. […] Series resistance (range 15–25 MW) was monitored at regular intervals throughout the recording and presented minimal variations (≤20%) in the analyzed cells. […]
The occurrence and magnitude of synaptic plasticity was evaluated by comparing the normalized EPSP amplitudes from the last 5 min of baseline recordings with the corresponding values at 20–30 min after HFS (HFS‐LTD). […]

Substance	mHtt aggregation in striatum (mutant huntingtin (mHtt))	Normalized EPSP amplitude after HFS (20–30 min) versus baseline ([1]; listed as Scr)	Normalized EPSP amplitude after HFS (20–30 min) versus baseline ([1]; listed as control peptide)
GRKKRRQRRRPPQGGGGGEPRRTEGVGPGVPGEVEMVKGQPFDV [RB5, six D-amino acids, acetylated N-terminus]	insufficient to attenuate the mHtt aggregation		
SCR: ineffective Scramble version of RB5 containing a TAT sequence (GRKKRRQRRRPPRVGPGVPEGVGVAVFGVKEPGQTGDVGPVGE) [reference compound]		76.7653	had no effect on plasticity induction
